Reference: paper PMC8728392, “Synthesis, Anticancer Assessment, and Molecular Docking of Novel Chalcone-Thienopyrimidine Derivatives in HepG2 and MCF-7 Cell Lines” (Oxidative Medicine and Cellular Longevity, 2021)

Legend:
Type in all cases: cell-based, human
[1] = system: Bax, Bcl-2, caspase-3, and caspase-9 in MCF-7; assay: RT-PCR relative expression of apoptosis markers; conditions: IC50, 8-hour incubation; for expression levels of Bax / expression levels of Bcl-2 / expression levels of caspase-3 / expression levels of caspase-9: vs control
Description: (§1) We determined the effect of IC50 concentration of newly synthesized thienopyrimidine derivatives (3a-e and 3g and 3b and 3g) on the relative expression levels of some markers of apoptosis in HepG2 and MCF-7 cell lines, respectively. These included the antiapoptotic marker Bcl-2 as well as the apoptotic markers Bax, caspase-3, and caspase-9 [33]. BIORAD iScript™ One-Step RT-PCR kit with SYBR® Green was used to assess the relative levels of expression of apoptosis markers. The measurement was carried out according to the technique of reverse transcription polymerase chain reaction (RT-PCR) using the Rotor-Gene RT-PCR system, and the method of the used kit was done based on the manufacturer's instructions. The procedure of this assay included the following:
(§2) Based on the manufacturer's instructions, the Qiagen RNeasy Extraction Kit (Qiagen Ltd., UK) was used to isolate mRNA from approximately 1 × 10^7 cells according to the cell line.
(§3) Mix all the following reagents to get the total volume (50 μl): 2X SYBR® Green RTPCR reaction mixture (25 μl), forward primer […] (1.5 μl), reverse primer […] (1.5 μl), nuclease-free water (11 μl), RNA template (1 pg-100 ng total RNA) (10 μl), and iScript reverse transcriptase (1 μl) for One-Step RT-PCR.
(§4) The thermal cycler (Rotor-Gene) program used was as follows: one cycle for reverse transcription at 50°C for 10 minutes and one cycle for RT inactivation/Hot-start activation at 95°C for 5 minutes and then 45 cycles for qPCR (10 s at 95°C, 30 seconds for annealing at 55°C, and 30 seconds for extension at 72°C), and this is followed by the final extension (one cycle) at 72°C for 10 minutes.

[2] = system: Bax, Bcl-2, caspase-3, and caspase-9 in HepG2; assay: RT-PCR relative expression of apoptosis markers; conditions: IC50, 8-hour incubation, vs control
Description: as §1, §2, §3, §4

[3] = system: GR activity in MCF-7 cells; assay: Glutathione reductase (GR) activity; conditions: IC50, in comparison to untreated cells
Procedure: The activity of GR was determined by the decrease in absorbance caused by the oxidation of NADPH during the reduction of oxidized GSH [41].
The activity of GR was determined by the decrease in absorbance caused by the oxidation of NADPH during the reduction of oxidized GSH (Malik et al., 2019). HepG2 or MCF-7cells were pre-treated with newly synthesized chalcone-thienopyrimidines derivatives for 24 hours, harvested and the pellet was re-suspended in twice the volume of protein extraction buffer (PEB). Cells were then vortexed vigorously for 2 min, repeating the cycle three times. Homogenate was then centrifuged at 10,000 rpm for 10 min. The supernatant was collected and was used to quantitate antioxidant enzyme GR using standard protocols. All determinations were made in at least five replicates and the values given are the average of these replicates.

[4] = system: MCF-7 cell line; assay: Annexin V-FITC/PI apoptotic assay
Description: Annexin V-fluorescein isothiocyanate (FITC) and counterstaining with propidium iodide (PI) using the Annexin V-FITC/PI apoptosis detection kit (BD Biosciences, San Diego, CA) were employed to distinguish early and late apoptotic cells according to the manufacturer's directions. Annexin V conjugated with fluorescein isothiocyanate was used to quantify the loss of phosphatidylserine asymmetry in cell membranes involved in apoptosis, and propidium iodide can distinguish between early apoptosis, late apoptotic, and necrotic cells. Analyses were achieved by using a FACSCalibur flow cytometer (BD Biosciences, San Jose, CA).
Cells were gently washed twice with PBS accompanied by tryptic digestion (0.25% trypsin/EDTA) and washed yet again with PBS. All the cells including the floating and adherent ones were harvested, pooled and stained with […] in 1× binding buffer for 15 min at room temperature in the dark. Analyses were achieved by FACS Calibur flow cytometer (BD Biosciences, San Jose, CA).

| SMILES | Bax/Bcl-2 ratios [1] | expression levels of Bax [1] | expression levels of Bcl-2 [1] | expression levels of caspase-3 [1] | expression levels of caspase-9 [1] | expression levels of Bcl-2 [2] | GR activity [3] | total, early, and late apoptosis as well as necrosis relative to the control cells [4] |
| --- | --- | --- | --- | --- | --- | --- | --- | --- |
| CCOC(=O)Cn1c(SCC(=O)Nc2ccc(C(=O)/C=C\c3cccc([N+](=O)[O-])c3)cc2)nc2sc3c(c2c1=O)CC(C)(C)NC3(C)C [Compound 3g, Ethyl (Z)-2-(6,6,8,8-Tetramethyl-2-((2-((4-(3-(3-nitrophenyl)acryloyl)-phenyl)amino)-2-oxoethyl)thio)-4-oxo-5,6,7,8-tetrahydropyrido[4′,3′:4,5]thieno[2,3-d]pyrimidin-3(4H)-yl)acetate] | strikingly elevated | significant elevation | remarkable decrease | significant elevation | significant elevation | noticeably decreased | significant decline | – |
| CCOC(=O)Cn1c(SCC(=O)Nc2ccc(C(=O)/C=C\c3cc(OC)c(OC)c(OC)c3)cc2)nc2sc3c(c2c1=O)CCN(C(=O)OCC)C3 [Compound 3b, Ethyl (Z)-3-(2-Ethoxy-2-oxoethyl)-4-oxo-2-((2-oxo-2-((4-(3-(3,4,5 trimethoxyphenyl)acryloyl)phenyl)amino)ethyl)thio)-3,5,6,8 tetra-hydropyrido[4′,3′:4,5]thieno[2,3-d]pyrimidine-7(4H)-carboxylate] | strikingly elevated | significant elevation | remarkable decrease | significant elevation | significant elevation | – | significant decline | significant increase |
